# Source: ChEMBL document CHEMBL1145878, “Synthesis and evaluation of isatins and thiosemicarbazone derivatives against cruzain, falcipain-2 and rhodesain” (Bioorg Med Chem Lett, 2003)
# Key:
# [1] = biological target: T1, Falcipain 2 (Plasmodium falciparum, UniProt Q9N6S8); assay: Inhibitory activity against Falcipain-2; no effect
# T1 sequence (Q9N6S8 whole entry): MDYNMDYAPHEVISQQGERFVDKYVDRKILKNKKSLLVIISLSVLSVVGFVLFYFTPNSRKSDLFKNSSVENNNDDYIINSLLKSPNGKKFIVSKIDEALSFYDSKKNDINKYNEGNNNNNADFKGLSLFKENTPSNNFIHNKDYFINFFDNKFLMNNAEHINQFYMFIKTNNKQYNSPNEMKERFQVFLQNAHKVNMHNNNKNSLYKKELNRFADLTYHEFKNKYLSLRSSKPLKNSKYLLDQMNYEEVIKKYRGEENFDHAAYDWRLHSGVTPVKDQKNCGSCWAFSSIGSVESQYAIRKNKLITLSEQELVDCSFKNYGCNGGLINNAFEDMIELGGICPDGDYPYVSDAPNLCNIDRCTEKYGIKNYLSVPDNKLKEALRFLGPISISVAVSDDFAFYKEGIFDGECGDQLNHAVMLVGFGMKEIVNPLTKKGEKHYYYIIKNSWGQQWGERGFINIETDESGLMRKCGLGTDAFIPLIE
# [2] = biological target: T2, Cruzipain (Trypanosoma cruzi, UniProt P25779); assay: Inhibitory activity against the Trypanosoma cruzi cysteine protease cruzain
# [3] = biological target: Rhodesain (Trypanosoma brucei rhodesiense, UniProt Q95PM0); assay: Inhibitory activity against Trypanosoma brucei rhodesiense cysteine protease rhodesain
# [4] = biological target: T1, Falcipain 2; assay: Inhibitory activity against Falcipain-2
# [5] = biological target: T1, Falcipain 2; assay: Inhibitory activity against Falcipain-2; No effect
# [6] = biological target: T2, Cruzipain; assay: Inhibitory activity against Cruzain;range is 20-50
# Rhodesain, sequence (Q95PM0 whole entry): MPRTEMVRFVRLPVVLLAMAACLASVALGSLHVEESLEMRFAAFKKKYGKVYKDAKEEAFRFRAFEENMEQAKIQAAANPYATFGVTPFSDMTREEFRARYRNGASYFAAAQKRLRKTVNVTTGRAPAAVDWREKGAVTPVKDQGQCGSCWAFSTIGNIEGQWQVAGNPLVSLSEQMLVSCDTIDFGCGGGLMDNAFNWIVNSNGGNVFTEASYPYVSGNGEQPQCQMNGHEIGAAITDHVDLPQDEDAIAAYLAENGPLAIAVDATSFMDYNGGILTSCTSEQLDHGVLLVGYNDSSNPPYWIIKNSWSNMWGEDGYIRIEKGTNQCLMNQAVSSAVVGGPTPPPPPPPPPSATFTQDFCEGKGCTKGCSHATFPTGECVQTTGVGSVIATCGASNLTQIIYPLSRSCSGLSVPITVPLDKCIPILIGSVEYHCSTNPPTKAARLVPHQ
# T2 sequence (P25779 whole entry): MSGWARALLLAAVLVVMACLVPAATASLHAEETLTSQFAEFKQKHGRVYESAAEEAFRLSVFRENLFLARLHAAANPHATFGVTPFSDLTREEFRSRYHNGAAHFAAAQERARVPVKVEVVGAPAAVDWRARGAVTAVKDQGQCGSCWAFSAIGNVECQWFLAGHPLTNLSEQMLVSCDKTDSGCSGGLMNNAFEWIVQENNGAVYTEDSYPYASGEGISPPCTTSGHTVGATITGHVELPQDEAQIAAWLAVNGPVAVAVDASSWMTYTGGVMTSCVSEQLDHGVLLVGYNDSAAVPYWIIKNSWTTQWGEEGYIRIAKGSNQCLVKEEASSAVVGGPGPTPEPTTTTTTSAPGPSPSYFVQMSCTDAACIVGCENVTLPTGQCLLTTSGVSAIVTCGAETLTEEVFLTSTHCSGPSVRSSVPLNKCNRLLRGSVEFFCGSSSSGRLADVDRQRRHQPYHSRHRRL
SMILES,IC50 [1],IC50 [2],IC50 [3],IC50 [4],IC50 [5],IC50 [6]
O=C1C(=O)N(Cc2ccccc2)c2ccccc21,Not Active,> 10 µM,> 10 µM,,,
O=C1Nc2ccc(Br)cc2C1=O,Not Active,> 10 µM,,,,
O=C1Nc2ccc(OC(F)(F)F)cc2C1=O,Not Active,> 10 µM,> 10 µM,,,
Cc1ccc2c(c1)C(=O)C(=O)N2Cc1ccc(Cl)cc1,Not Active,> 10 µM,> 10 µM,,,
Cc1ccc2c(c1)C(=O)C(=O)N2Cc1ccccc1-c1ccccc1,,2.8 µM,> 10 µM,9.2 µM,,
Cc1cc(C)c2[nH]c(O)c(/N=N/C(=N)S)c2c1,,16 µM,15 µM,13.2 µM,,
Cc1cc(Cl)cc2c(/N=N/C(=N)S)c(O)[nH]c12,,10.5 µM,3 µM,9.4 µM,,
O=C1C(=O)N(Cc2ccccc2)c2ccc(I)cc21,,90 µM,> 10 µM,,,
Cc1ccc(C)c(CN2C(=O)C(=O)c3cc(C)ccc32)c1,Not Active,80 µM,> 10 µM,,,
O=C1C(=O)N(C(=O)OCc2ccccc2)c2ccc(F)cc21,,> 10 µM,> 10 µM,,,
O=C1C(=O)N(C(=O)c2ccccc2)c2ccccc21,Not Active,,100 µM,,,
Cc1ccc2c(c1)C(=O)C(=O)N2,,> 10 µM,,,Not Active,
NC(=S)/N=N/c1c(O)[nH]c2ccc(Cl)cc12,,21 µM,6 µM,32.8 µM,,
Cc1ccc2[nH]c(O)c(/N=N/C(=N)S)c2c1,,,15 µM,43.9 µM,,50 µM
NC(=S)/N=N/c1c(O)[nH]c2ccc(I)cc12,,9 µM,1 µM,28.7 µM,,
O=C1C(=O)N(C(=O)OCc2ccccc2)c2ccccc21,Not Active,,30 µM,,,
NC(=S)/N=N/c1c(O)[nH]c2ccc(F)cc12,,30 µM,15 µM,38.6 µM,,

SMILES,IC50 [1],IC50 [2],IC50 [3],IC50 [4],IC50 [5],IC50 [6]
O=C1C(=O)N(S(=O)(=O)c2ccccc2)c2ccccc21,Not Active,,15 µM,,,
COc1cccc(CN2C(=O)C(=O)c3cc(Cl)ccc32)c1,,> 10 µM,> 10 µM,34.6 µM,,
NC(=S)/N=N/c1c(O)[nH]c2ccc([N+](=O)[O-])cc12,,30 µM,17 µM,4.4 µM,,
COc1cccc(CN2C(=O)C(=O)c3cc(C)ccc32)c1,,2 µM,> 10 µM,21.9 µM,,
O=C1C(=O)N(C(=O)OCc2ccccc2)c2ccc(Cl)cc21,Not Active,80 µM,> 10 µM,,,
O=C1Nc2ccc(Cl)cc2C1=O,Not Active,> 10 µM,,,,
O=C1C(=O)N(Cc2ccc(Cl)cc2)c2ccc(Cl)cc21,,6 µM,> 10 µM,31.2 µM,,
NC(=S)/N=N/c1c(O)[nH]c2ccccc12,,8 µM,3.5 µM,38.8 µM,,
Cc1cc(C)c2c(c1)C(=O)C(=O)N2,Not Active,> 10 µM,,,,
O=C1C(=O)N(Cc2ccccc2)c2ccc(Cl)cc21,,90 µM,> 10 µM,46.9 µM,,
NC(=S)/N=N/c1c(O)[nH]c2ccc(Br)cc12,,20 µM,7 µM,29.6 µM,,
CN1C(=O)C(=O)c2ccccc21,Not Active,> 10 µM,,,,
O=C1Nc2ccc(F)cc2C1=O [5-FLUOROISATIN],Not Active,> 10 µM,,,,
O=C1Nc2ccc(I)cc2C1=O [5-IODOISATIN],Not Active,> 10 µM,,,,
O=C1Nc2ccc([N+](=O)[O-])cc2C1=O [5-NITROISATIN],,> 10 µM,> 10 µM,42.6 µM,,
O=C1Nc2ccccc2C1=O [ISATIN],,> 10 µM,> 10 µM,,Not Active,
O=C1C(=O)N(c2ccccc2)c2ccccc21 [PHENYL ISATIN],Not Active,> 10 µM,,,,
